Reference: article PMC9774391 (ACS Omega, 2022)

Experiments:
[1] = DPPH free-radical scavenging activity assay; conditions: for IC50: serial dilution 10^–3–10^–9 M, read-out: IC50 on DPPH antioxidant activity
Procedure: This approach is based on evaluating the free-radical scavenging abilities of the stable 1,1-diphenyl-2-picrylhydrazyl (DPPH) radical. To create the DPHH solution, 9.86 mg of DPPH was weighed and diluted to 25 mL with methanol. The test wells were then filled with 100 μL of the DPPH solution and 100 μL of the test solutions. Only 200 μL of methanol was used for the blank reading, while the control reading required the usage of 100 μL each of methanol and the DPPH solution. Following incubation, a spectrophotometric measurement at 517 nm was carried out.[26],[27]

AChE = AChE (Homo sapiens, UniProt P22303); assay: biochemical; conditions: for inhibition at 1000 µM: 10^–3 M; for inhibition at 100 µM: 10^–4 M; for inhibition at 10 µM: 10^–5 M; for inhibition at 1 µM: 10^–6 M; for inhibition at 0.1 µM: 10^–7 M; for inhibition at 0.01 µM: 10^–8 M; for inhibition at 0.001 µM: 10^–9 M
Procedure: (§1) According to the modified Ellman approach outlined in our team’s earlier work, the AChE and BChE inhibitory activities of the obtained compounds were evaluated.[18]−[21]

BChE = BChE (Homo sapiens, UniProt P06276); assay: biochemical; conditions: for inhibition at 1000 µM: 10^–3 M; for inhibition at 100 µM: 10^–4 M
Procedure: as §1

MAO-A = molecular target: T1, MAO-A (Homo sapiens, UniProt P21397); assay: In vitro MAO-A inhibition assay (fluorometric); type: biochemical; conditions: for inhibition at 1000 µM: 10^–3 M; for inhibition at 100 µM: 10^–4 M
T1 sequence (P21397 1-527): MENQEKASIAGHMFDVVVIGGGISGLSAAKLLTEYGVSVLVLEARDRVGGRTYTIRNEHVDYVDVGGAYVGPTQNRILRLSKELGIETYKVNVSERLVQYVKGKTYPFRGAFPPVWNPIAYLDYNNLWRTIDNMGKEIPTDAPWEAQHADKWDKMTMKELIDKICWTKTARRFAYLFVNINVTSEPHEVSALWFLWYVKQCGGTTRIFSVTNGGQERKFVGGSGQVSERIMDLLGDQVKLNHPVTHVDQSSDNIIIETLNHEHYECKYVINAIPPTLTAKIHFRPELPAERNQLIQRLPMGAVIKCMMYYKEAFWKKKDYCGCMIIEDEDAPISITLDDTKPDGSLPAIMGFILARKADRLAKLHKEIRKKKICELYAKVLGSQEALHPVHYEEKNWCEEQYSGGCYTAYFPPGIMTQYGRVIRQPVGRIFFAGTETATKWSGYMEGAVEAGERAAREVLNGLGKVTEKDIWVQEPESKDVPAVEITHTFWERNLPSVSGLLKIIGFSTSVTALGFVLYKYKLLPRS

MAO-B = molecular target: T2, MAO-B (Homo sapiens, UniProt P27338); assay: In vitro MAO-B inhibition assay (fluorometric); type: biochemical; conditions: for inhibition at 100 µM: 10^–4 M; for inhibition at 10 µM: 10^–5 M; for inhibition at 1 µM: 10^–6 M; for inhibition at 0.1 µM: 10^–7 M; for inhibition at 0.01 µM: 10^–8 M; for inhibition at 0.001 µM: 10^–9 M; for inhibition at 1000 µM: 10^–3 M
T2 sequence (P27338 1-520): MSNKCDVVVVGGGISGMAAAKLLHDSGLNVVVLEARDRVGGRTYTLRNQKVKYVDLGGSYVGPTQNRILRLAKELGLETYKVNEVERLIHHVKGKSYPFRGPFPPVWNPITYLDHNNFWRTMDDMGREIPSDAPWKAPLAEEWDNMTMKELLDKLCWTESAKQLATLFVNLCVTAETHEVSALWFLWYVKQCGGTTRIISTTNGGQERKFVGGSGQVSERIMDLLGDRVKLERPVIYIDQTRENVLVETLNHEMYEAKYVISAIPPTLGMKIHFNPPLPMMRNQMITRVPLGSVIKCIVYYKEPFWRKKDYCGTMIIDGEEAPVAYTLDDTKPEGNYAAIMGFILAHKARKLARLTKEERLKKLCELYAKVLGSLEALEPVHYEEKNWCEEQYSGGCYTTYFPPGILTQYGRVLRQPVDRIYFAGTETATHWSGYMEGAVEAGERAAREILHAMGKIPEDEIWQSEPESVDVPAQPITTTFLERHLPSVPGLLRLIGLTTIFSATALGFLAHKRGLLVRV

Cytotoxicity test (MTT) = type: cell-based; conditions: NIH/3T3 mouse embryonic fibroblast cells (ATCC CRL-1658), NIH/3T3 mouse fibroblast healthy cell line
Procedure: The NIH/3T3 cells were incubated according to the manufacturer’s recommendations. In 96-well plates, NIH/3T3 cells were seeded at a density of 1 × 10^4 cells per well. The MTT test was conducted in line with the previously mentioned standards.[19],[22],[23],[28],[30]

Beta Amyloid 1–42 (Aβ42) = molecular target: T3, Beta Amyloid 1–42 (Aβ42) (Homo sapiens, UniProt P05067); assay: Beta Amyloid 1–42 (Aβ42) inhibitor screening assay; type: biochemical; conditions: 10^–4 M; read-out: % β-amyloid plaque inhibition
T3 construct: The Beta Amyloid 1–42 (Aβ42) Ligand Screening Assay kit; purchased BioVision, Milpitas, CA
Excerpt: The Beta Amyloid 1–42 (Aβ42) Ligand Screening Assay kit (BioVision, Milpitas, CA) technique based on the fluorometric approach served as the basis for the experimental process.[21],[28],[29]

Sequence of AChE (P22303 32-614): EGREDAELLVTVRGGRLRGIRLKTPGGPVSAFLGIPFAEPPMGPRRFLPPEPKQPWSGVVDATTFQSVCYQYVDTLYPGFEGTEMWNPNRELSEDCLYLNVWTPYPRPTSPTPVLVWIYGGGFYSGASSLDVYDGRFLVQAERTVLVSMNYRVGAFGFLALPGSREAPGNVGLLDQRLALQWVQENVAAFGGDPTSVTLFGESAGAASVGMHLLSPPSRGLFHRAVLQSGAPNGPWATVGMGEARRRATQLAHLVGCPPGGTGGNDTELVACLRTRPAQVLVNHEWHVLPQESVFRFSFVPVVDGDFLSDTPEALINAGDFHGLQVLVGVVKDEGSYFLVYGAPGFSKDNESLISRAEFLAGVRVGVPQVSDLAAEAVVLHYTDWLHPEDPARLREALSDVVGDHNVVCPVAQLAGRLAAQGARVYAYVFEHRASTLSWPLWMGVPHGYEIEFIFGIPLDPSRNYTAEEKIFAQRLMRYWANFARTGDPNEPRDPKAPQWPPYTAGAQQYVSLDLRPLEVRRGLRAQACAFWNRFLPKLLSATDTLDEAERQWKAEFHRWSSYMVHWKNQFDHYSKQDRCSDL
Sequence of BChE (P06276 29-602): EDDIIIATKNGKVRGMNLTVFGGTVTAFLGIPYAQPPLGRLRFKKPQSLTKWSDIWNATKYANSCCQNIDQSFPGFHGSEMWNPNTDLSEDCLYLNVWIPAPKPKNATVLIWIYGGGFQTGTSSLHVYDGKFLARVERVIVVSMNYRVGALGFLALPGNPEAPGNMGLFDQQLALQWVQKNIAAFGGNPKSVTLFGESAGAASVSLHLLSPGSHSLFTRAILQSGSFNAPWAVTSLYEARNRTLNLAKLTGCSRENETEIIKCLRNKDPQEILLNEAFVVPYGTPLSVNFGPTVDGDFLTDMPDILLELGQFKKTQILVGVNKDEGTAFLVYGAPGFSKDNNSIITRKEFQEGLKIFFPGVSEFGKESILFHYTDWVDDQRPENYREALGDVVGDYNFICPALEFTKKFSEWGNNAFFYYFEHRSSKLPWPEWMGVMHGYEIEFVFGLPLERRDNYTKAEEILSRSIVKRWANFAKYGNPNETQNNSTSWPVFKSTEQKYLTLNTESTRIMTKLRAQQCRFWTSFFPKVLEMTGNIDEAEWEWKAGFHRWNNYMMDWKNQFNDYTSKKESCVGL
T3 sequence (P05067 672-713 limits assumed): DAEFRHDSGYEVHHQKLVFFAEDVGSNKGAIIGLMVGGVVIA

O=C1O[C@H]([C@@H](O)CO)C(O)=C1O [ascorbic acid, reference compound]
% DPPH free-radical scavenging (antioxidant) activity ([1]; 10^–3 M): 98.75% ± 1.67 | % DPPH free-radical scavenging (antioxidant) activity ([1]; 10^–4 M): 95.22% ± 1.47 | IC50 [1]: 165 ± 7 nM

CCN(CC)CCN(CC)CC(=O)Nc1ccc(/C=C2\Cc3cc(OC)ccc3C2=O)cc1 [D40]
inhibition at 1000 µM (AChE): 81.3 ± 1.11% | inhibition at 100 µM (AChE): 41.6 ± 0.995% | inhibition at 1000 µM (BChE): 95.1 ± 1.24% | inhibition at 100 µM (BChE): 44.3 ± 0.642% | inhibition at 1000 µM (MAO-A): 84.3 ± 1.27% | inhibition at 100 µM (MAO-A): 41.3 ± 0.577% | IC50 (MAO-B): 203 ± 9.8 nM | inhibition at 100 µM (MAO-B): 88.8 ± 1.3% | inhibition at 10 µM (MAO-B): 80.6 ± 1.48% | inhibition at 1 µM (MAO-B): 65.2 ± 0.975% | inhibition at 0.1 µM (MAO-B): 43.1 ± 0.662% | inhibition at 0.01 µM (MAO-B): 25.7 ± 0.425% | inhibition at 0.001 µM (MAO-B): 19.9 ± 0.365% | IC50 (Cytotoxicity test (MTT)): 6870 ± 297 nM

COc1ccc2c(c1)C/C(=C\c1ccc(NC(=O)CN3CCN(CCCN(C)C)CC3)cc1)C2=O [D25]
IC50 (AChE): 183 ± 7.4 nM | inhibition at 1000 µM (AChE): 92.6 ± 1.62% | inhibition at 100 µM (AChE): 88.7 ± 1.19% | inhibition at 10 µM (AChE): 71.1 ± 1.01% | inhibition at 1 µM (AChE): 58.9 ± 0.952% | inhibition at 0.1 µM (AChE): 43.2 ± 0.548% | inhibition at 0.01 µM (AChE): 35.3 ± 0.417% | inhibition at 0.001 µM (AChE): 23.4 ± 0.389% | inhibition at 1000 µM (BChE): 95.7 ± 2.13% | inhibition at 100 µM (BChE): 32 ± 0.667% | inhibition at 1000 µM (MAO-A): 80.38 ± 0.646% | inhibition at 100 µM (MAO-A): 43.1 ± 0.646% | inhibition at 1000 µM (MAO-B): 79 ± 1.31% | inhibition at 100 µM (MAO-B): 40.1 ± 0.63% | IC50 (Cytotoxicity test (MTT)): 13800 ± 369 nM

COc1ccc2c(c1)C/C(=C\c1ccc(NC(=O)CN(C)CCN(C)C)cc1)C2=O [D34]
IC50 (AChE): 191 ± 8.7 nM | inhibition at 1000 µM (AChE): 98.3 ± 1.11% | inhibition at 100 µM (AChE): 91.1 ± 1.36% | inhibition at 10 µM (AChE): 76 ± 1.12% | inhibition at 1 µM (AChE): 63.4 ± 0.985% | inhibition at 0.1 µM (AChE): 41.2 ± 0.528% | inhibition at 0.01 µM (AChE): 32.5 ± 0.588% | inhibition at 0.001 µM (AChE): 23.5 ± 0.429% | IC50 (BChE): 132 ± 5.1 nM | inhibition at 1000 µM (BChE): 91.6 ± 1.03% | inhibition at 10 µM (BChE; 10^–5 M): 76.3 ± 1.14% | inhibition at 1 µM (BChE; 10^–6 M): 71.9 ± 1.01% | inhibition at 0.1 µM (BChE; 10^–7 M): 49.7 ± 0.856% | inhibition at 0.01 µM (BChE; 10^–8 M): 31.5 ± 0.405% | inhibition at 0.001 µM (BChE; 10^–9 M): 20.5 ± 0.399% | inhibition at 1000 µM (MAO-A): 82.1 ± 1.25% | inhibition at 100 µM (MAO-A): 38.3 ± 0.458% | inhibition at 1000 µM (MAO-B): 78.5 ± 1.31% | inhibition at 100 µM (MAO-B): 47.3 ± 0.676% | IC50 [1]: 302 ± 14 nM | IC50 (Cytotoxicity test (MTT)): 75500 ± 2180 nM

C#CCN(C)CC(=O)Nc1ccc(/C=C2\Cc3ccc(OC)cc3C2=O)cc1 [D32]
inhibition at 1000 µM (AChE): 33.8 ± 0.885% | inhibition at 100 µM (AChE): 26.4 ± 0.565% | inhibition at 1000 µM (BChE): 90.9 ± 1.29% | inhibition at 100 µM (BChE): 24.7 ± 0.455% | inhibition at 1000 µM (MAO-A): 76.7 ± 1.67% | inhibition at 100 µM (MAO-A): 29.7 ± 0.752% | IC50 (MAO-B): 66.5 ± 2.4 nM | inhibition at 1000 µM (MAO-B): 94.8 ± 1.42% | inhibition at 100 µM (MAO-B): 89.6 ± 1.27% | inhibition at 10 µM (MAO-B): 81.5 ± 1.8% | inhibition at 1 µM (MAO-B): 72.7 ± 1.32% | inhibition at 0.1 µM (MAO-B): 59.6 ± 0.977% | inhibition at 0.01 µM (MAO-B): 34.2 ± 0.514% | inhibition at 0.001 µM (MAO-B): 21.5 ± 0.429% | IC50 (Cytotoxicity test (MTT)): 282000 ± 7040 nM

COc1ccc2c(c1)C(=O)/C(=C/c1ccc(NC(=O)CN3CCN(CCN(C)C)CC3)cc1)C2 [D23]
IC50 (AChE): 51 ± 1.4 nM | inhibition at 1000 µM (AChE): 92.5 ± 1.57% | inhibition at 100 µM (AChE): 87.6 ± 1.68% | inhibition at 10 µM (AChE): 82.4 ± 1.21% | inhibition at 1 µM (AChE): 70.1 ± 1.06% | inhibition at 0.1 µM (AChE): 68.9 ± 0.945% | inhibition at 0.01 µM (AChE): 35.5 ± 0.518% | inhibition at 0.001 µM (AChE): 20.6 ± 0.418% | inhibition at 1000 µM (BChE): 99 ± 1.68% | inhibition at 100 µM (BChE): 41.5 ± 0.741% | inhibition at 1000 µM (MAO-A): 78.2 ± 0.969% | inhibition at 100 µM (MAO-A): 22.9 ± 0.497% | inhibition at 1000 µM (MAO-B): 81.3 ± 1.05% | inhibition at 100 µM (MAO-B): 43.2 ± 0.884% | inhibition at 100 µM (Beta Amyloid 1–42 (Aβ42)): > 50% | IC50 (Cytotoxicity test (MTT)): 2150 ± 127 nM

COc1ccc2c(c1)C(=O)/C(=C/c1ccc(NC(=O)CN3CCN(CCCN(C)C)CC3)cc1)C2 [D26]
IC50 (AChE): 176 ± 6.2 nM | inhibition at 1000 µM (AChE): 93.3 ± 1.5% | inhibition at 100 µM (AChE): 80.5 ± 1.21% | inhibition at 10 µM (AChE): 78.1 ± 1.02% | inhibition at 1 µM (AChE): 60.6 ± 0.974% | inhibition at 0.1 µM (AChE): 40.3 ± 0.598% | inhibition at 0.01 µM (AChE): 35.6 ± 0.758% | inhibition at 0.001 µM (AChE): 24.5 ± 0.622% | inhibition at 1000 µM (BChE): 56.2 ± 0.826% | inhibition at 100 µM (BChE): 31.1 ± 0.415% | inhibition at 1000 µM (MAO-A): 95.12 ± 0.828% | inhibition at 100 µM (MAO-A): 44.3 ± 0.914% | inhibition at 1000 µM (MAO-B): 94.3 ± 0.997% | inhibition at 100 µM (MAO-B): 41.3 ± 0.874% | IC50 (Cytotoxicity test (MTT)): 21800 ± 556 nM
